{"source": "patent US20260070945A1", "about": "“MACROCYCLIC IMMUNOMODULATORS” (Bristol-Myers Squibb Company, priority 2022, published 2026)", "note": "*1 amine or outer side, *2 acyl side, *3 side chain or, on linkers, in order; H or OH if unused. Where a SMILES comes first, the peptide text is derived from it. Bridges are numbered along the chain shown (N, C = ends). [ ]: non-standard residue; d: D form. The star is where a group is joined. ξ: configuration not given here. Phe(3-CF3) = N[C@@H](Cc1cccc(C(F)(F)F)c1)C(=O)O; Ala(morpholin-4-yl) = N[C@@H](CN1CCOCC1)C(=O)O; Phe(4-COOH) = N[C@@H](Cc1ccc(C(=O)O)cc1)C(=O)O; Bip = N[C@@H](Cc1ccc(-c2ccccc2)cc1)C(=O)O; Phe(3-Me) = Cc1cccc(C[C@H](N)C(=O)O)c1; γGlu = O=C(O)[C@H](CCC(=O)[*:2])N[*:1]; NH(CH2)12COOH = O=C(O)CCCCCCCCCCCCN*; Val(3-OH) = CC(C)(O)[C@H](N)C(=O)O; 4Pal = N[C@@H](Cc1ccncc1)C(=O)O; Aad = N[C@@H](CCCC(=O)O)C(=O)O; Cha = N[C@@H](CC1CCCCC1)C(=O)O; Cit = NC(=O)NCCC[C@H](N)C(=O)O; Ile(3ξ) = CCC(C)[C@H](N)C(=O)O; Thr(3ξ) = CC(O)[C@H](N)C(=O)O; Carboxymethyl = O=C(O)C*; NMeA = CN[C@@H](C)C(=O)O; Orn = NCCC[C@H](N)C(=O)O; dDap = NC[C@@H](N)C(=O)O; Aun = NCCCCCCCCCCC(=O)O; Dab = NCC[C@H](N)C(=O)O; Abu = CC[C@H](N)C(=O)O; AEEA = NCCOCCOCC(=O)O"}
{"molecular_target": "T1, PD-1/PD-L1 interaction (PE-labeled human PD-L1-Ig binding to Jurkat cell line over-expressing human PD-1) (Homo sapiens, UniProt Q15116)", "T1 construct": "expressed in transfected cells; host or cells: Jurkat", "T1 sequence (Q15116 25-288)": "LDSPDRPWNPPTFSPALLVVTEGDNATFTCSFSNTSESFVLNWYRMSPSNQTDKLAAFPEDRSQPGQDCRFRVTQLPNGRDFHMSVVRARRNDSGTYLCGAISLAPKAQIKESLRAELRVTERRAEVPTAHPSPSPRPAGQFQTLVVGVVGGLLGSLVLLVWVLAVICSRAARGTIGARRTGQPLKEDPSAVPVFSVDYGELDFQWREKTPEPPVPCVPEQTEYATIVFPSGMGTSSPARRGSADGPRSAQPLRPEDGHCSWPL", "assay": "Jurkat-PD-1 Cell Binding High-Content Screening Assay (CBA)", "details": "Jurkat-hPD-1 cells, PE-labeled PD-L1-Ig 20 nM final; read-out: Jurkat HPD1 PDL1 IC50", "outline": "(§1)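 Jurkat cells overexpressing human PD-1 (8×10^3/well, DMEM + 10% FCS) preincubated with compound 2 h at 37 °C, then PE-labelled human PD-L1-Ig (20 nM final) for 1 h. Cells fixed in paraformaldehyde with Hoechst 33342; bound PD-L1 quantified by high-content imaging.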", "units": {"IC50": "µM"}}
{"compound": "CC(C)C[C@H]1NC(=O)[C@H](C)N(C)C(=O)[C@H](CCCNC(N)=O)NC(=O)[C@H](Cc2ccc(-c3ccccc3)cc2)NC(=O)[C@H](Cc2ccc(C(=O)O)cc2)NC(=O)[C@H](Cc2cccc(C(F)(F)F)c2)NC(=O)[C@H](CC(=O)O)NC(=O)[C@H](Cc2ccc(OCC(=O)O)cc2)NC(=O)[C@H](Cc2ccc(C(=O)O)cc2)NC(=O)CSC[C@@H](C(=O)N[C@@H](CCN)C(=O)NCCCCCCCCCCCCC(=O)O)NC(=O)[C@H](Cc2c[nH]cn2)NC(=O)[C@H](C(C)(C)O)NC(=O)[C@H](CC2CCCCC2)NC(=O)[C@H](CCN)NC1=O", "note": "[Example 1149] ({CH2CO}-[Phe(4-COOH)]Y(Carboxymethyl)D[Phe(3-CF3)][Phe(4-COOH)][Bip][Cit][NMeA][dL][Dab][Cha][Val(3-OH)]HC[Dab]-{NH(CH2)12COOH}; thioether N-14)", "IC50": 0.0152}
{"compound": "CC(C)C[C@H]1NC(=O)[C@H](C)N(C)C(=O)[C@H](CCC(N)=O)NC(=O)[C@H](Cc2ccc(-c3ccccc3)cc2)NC(=O)[C@H](Cc2ccc(C(=O)O)cc2)NC(=O)[C@H](Cc2cccc(C(F)(F)F)c2)NC(=O)[C@H](CC(=O)O)NC(=O)[C@H](Cc2ccc(OCC(=O)O)cc2)NC(=O)[C@H](CN2CCOCC2)NC(=O)CSC[C@@H](C(=O)N[C@@H](CCN)C(=O)NCCOCCOCC(=O)N[C@@H](CCC(=O)NCCOCCOCC(=O)NCCCCCCCCCCCCC(=O)O)C(=O)O)NC(=O)[C@H](CO)NC(=O)[C@H](C(C)(C)O)NC(=O)[C@H](CC2CCCCC2)NC(=O)[C@H](CCN)NC1=O", "note": "[Example 1173] ({CH2CO}-[Ala(morpholin-4-yl)]Y(Carboxymethyl)D[Phe(3-CF3)][Phe(4-COOH)][Bip]Q[NMeA][dL][Dab][Cha][Val(3-OH)]SC[Dab][AEEA][γGlu][AEEA]-{NH(CH2)12COOH}; thioether N-14)", "IC50": 0.0215}
{"compound": "Cc1cccc(C[C@@H]2NC(=O)[C@H](CC(=O)O)NC(=O)[C@H](Cc3ccc(OCC(=O)O)cc3)NC(=O)[C@H](C(C)O)NC(=O)CSC[C@@H](C(=O)N[C@@H](CCN)C(=O)NCCOCCOCC(=O)NCCCCCCCCCCC(=O)O)NC(=O)[C@H](CCCC(=O)O)NC(=O)[C@H](C(C)C)NC(=O)[C@H](CC3CCCCC3)NC(=O)[C@H](CCN)NC(=O)[C@@H](CC(C)C)NC(=O)[C@H](C)N(C)C(=O)[C@H](Cc3ccc(OCC(=O)O)cc3)NC(=O)[C@H](Cc3ccc(-c4ccccc4)cc3)NC(=O)[C@H](Cc3ccc(C(=O)O)cc3)NC2=O)c1", "note": "(stereo partly drawn) [Example 2476] ({CH2CO}-[Thr(3ξ)]Y(Carboxymethyl)D[Phe(3-Me)][Phe(4-COOH)][Bip]Y(Carboxymethyl)[NMeA][dL][Dab][Cha]V[Aad]C[Dab][AEEA][Aun]-OH; thioether N-14)", "IC50": 0.0144}
{"compound": "CC(C)C[C@@H]1NC(=O)[C@H](Cc2c[nH]c3ccccc23)NC(=O)[C@H](CC(=O)O)NC(=O)[C@H](Cc2ccc(C(=O)O)cc2)NC(=O)[C@H](Cc2ccc(OCC(=O)O)cc2)NC(=O)CSC[C@@H](C(=O)N[C@@H](CCN)C(=O)NCCCCCCCCCCC(=O)O)NC(=O)[C@H](CCC(N)=O)NC(=O)[C@H](C(C)C)NC(=O)[C@H](CC2CCCCC2)NC(=O)[C@H](CCN)NC(=O)[C@@H](CC(C)C)NC(=O)[C@H](C)N(C)C(=O)[C@H](C(C)C)NC(=O)[C@H](Cc2ccc(-c3ccccc3)cc2)NC1=O", "note": "[Example 1000] ({CH2CO}-Y(Carboxymethyl)[Phe(4-COOH)]DWL[Bip]V[NMeA][dL][Dab][Cha]VQC[Dab][Aun]-OH; thioether N-14)", "IC50": 0.0234}
{"compound": "CC(C)C[C@@H]1NC(=O)[C@H](Cc2c[nH]c3ccccc23)NC(=O)[C@H](CC(=O)O)NC(=O)[C@H](Cc2ccc(C(=O)O)cc2)NC(=O)[C@H](Cc2ccc(OCC(=O)O)cc2)NC(=O)CSC[C@@H](C(=O)N[C@@H](CCCN)C(=O)NCCOCCOCC(=O)NCCCCCCCCCCC(=O)O)NC(=O)[C@H](CCCCN)NC(=O)[C@H](C(C)C)NC(=O)[C@H](CC2CCCCC2)NC(=O)[C@H](CC(N)=O)NC(=O)[C@@H](CC(C)C)NC(=O)[C@H](C)N(C)C(=O)[C@H](C(C)C)NC(=O)[C@H](Cc2ccc(-c3ccccc3)cc2)NC1=O", "note": "[Example 2145] ({CH2CO}-Y(Carboxymethyl)[Phe(4-COOH)]DWL[Bip]V[NMeA][dL]N[Cha]VKC[Orn][AEEA][Aun]-OH; thioether N-14)", "IC50": 0.0143}
{"compound": "CCC(C)[C@@H]1NC(=O)[C@H](Cc2ccc(-c3ccccc3)cc2)NC(=O)[C@H](C(C)C)NC(=O)[C@H](Cc2c[nH]c3ccccc23)NC(=O)[C@H](CC(=O)O)NC(=O)[C@H](Cc2ccc(O)cc2)NC(=O)[C@H](Cc2ccncc2)NC(=O)CSC[C@@H](C(=O)N[C@H](CN)C(=O)NCCOCCOCC(=O)NCCCCCCCCCCC(=O)O)NC(=O)[C@H](C(C)O)NC(=O)[C@H](C(C)C)NC(=O)[C@H](CC2CCCCC2)NC(=O)[C@H](CCN)NC(=O)[C@@H](CC(C)C)NC(=O)[C@H](C)N(C)C1=O", "note": "(stereo partly drawn) [Example 2071] ({CH2CO}-[4Pal]YDWV[Bip][Ile(3ξ)][NMeA][dL][Dab][Cha]V[Thr(3ξ)]C[dDap][AEEA][Aun]-OH; thioether N-14)", "IC50": 0.0202}
{"compound": "CCC(C)[C@@H]1NC(=O)[C@H](Cc2ccc(-c3ccccc3)cc2)NC(=O)[C@H](C(C)C)NC(=O)[C@H](Cc2c[nH]c3ccccc23)NC(=O)[C@H](CC(=O)O)NC(=O)[C@H](Cc2ccc(OCC(=O)O)cc2)NC(=O)[C@H](C(C)O)NC(=O)CSC[C@@H](C(=O)N[C@@H](C)C(=O)NCCOCCOCC(=O)N[C@@H](CCC(=O)NCCOCCOCC(=O)N[C@@H](CCC(=O)NCCOCCOCC(=O)N[C@@H](CCCCN)C(=O)NCCCCCCCCCCCCC(=O)O)C(=O)O)C(=O)O)NC(=O)[C@H](C(C)O)NC(=O)[C@H](C(C)C)NC(=O)[C@H](CC2CCCCC2)NC(=O)[C@H](CCN)NC(=O)[C@@H](CC(C)C)NC(=O)[C@H](C)N(C)C1=O", "note": "(stereo partly drawn) [Example 2009] ({CH2CO}-[Thr(3ξ)]Y(Carboxymethyl)DWV[Bip][Ile(3ξ)][NMeA][dL][Dab][Cha]V[Thr(3ξ)]CA[AEEA][γGlu][AEEA][γGlu][AEEA]K-{NH(CH2)12COOH}; thioether N-14)", "IC50": 0.0583}
{"compound": "Cc1cccc(C[C@@H]2NC(=O)[C@H](CC(=O)O)NC(=O)[C@H](Cc3ccc(C(=O)O)cc3)NC(=O)[C@H](Cc3ccc(OCC(=O)O)cc3)NC(=O)CSC[C@@H](C(=O)NCCOCCOCC(=O)NCCCCCCCCCCC(=O)O)NC(=O)[C@H](CO)NC(=O)[C@H](C(C)C)NC(=O)[C@H](CC(C)C)NC(=O)[C@H](CC(N)=O)NC(=O)[C@@H](CC(C)C)NC(=O)[C@H](C)N(C)C(=O)[C@H](C(C)C)NC(=O)[C@H](Cc3ccc(-c4ccccc4)cc3)NC(=O)[C@H](CC(C)C)NC2=O)c1", "note": "[Example 1027] ({CH2CO}-Y(Carboxymethyl)[Phe(4-COOH)]D[Phe(3-Me)]L[Bip]V[NMeA][dL]NLVSC[AEEA][Aun]-OH; thioether N-14)", "IC50": 0.0219}
{"compound": "CCC(C)[C@@H]1NC(=O)[C@H](Cc2ccc(-c3ccccc3)cc2)NC(=O)[C@H](CC(C)C)NC(=O)[C@H](Cc2c[nH]c3ccccc23)NC(=O)[C@H](CC(=O)O)NC(=O)[C@H](Cc2ccc(C(=O)O)cc2)NC(=O)[C@H](Cc2ccc(OCC(=O)O)cc2)NC(=O)CSC[C@@H](C(=O)N[C@@H](CCN)C(=O)NCCOCCOCC(=O)NCCCCCCCCCCC(=O)O)NC(=O)[C@H](CCC(=O)O)NC(=O)[C@H](C(C)(C)O)NC(=O)[C@H](CC2CCCCC2)NC(=O)[C@H](CCN)NC(=O)[C@@H](CC(C)C)NC(=O)[C@H](C)N(C)C1=O", "note": "(stereo partly drawn) [Example 1414] ({CH2CO}-Y(Carboxymethyl)[Phe(4-COOH)]DWL[Bip][Ile(3ξ)][NMeA][dL][Dab][Cha][Val(3-OH)]EC[Dab][AEEA][Aun]-OH; thioether N-14)", "IC50": 0.003}
{"compound": "Cc1cccc(C[C@@H]2NC(=O)[C@H](CC(=O)O)NC(=O)[C@H](Cc3c[nH]cn3)NC(=O)[C@H](Cc3ccc(OCC(=O)O)cc3)NC(=O)CSC[C@@H](C(=O)NCCCCCCCCCCC(=O)O)NC(=O)[C@H](CCC(N)=O)NC(=O)[C@H](C(C)C)NC(=O)[C@H](CC3CCCCC3)NC(=O)[C@H](CCN)NC(=O)[C@@H](CC(C)C)NC(=O)[C@H](C)N(C)C(=O)[C@H](Cc3ccc(O)cc3)NC(=O)[C@H](Cc3ccc(-c4ccccc4)cc3)NC(=O)[C@H](CC(C)C)NC2=O)c1", "note": "[Example 2251] ({CH2CO}-Y(Carboxymethyl)HD[Phe(3-Me)]L[Bip]Y[NMeA][dL][Dab][Cha]VQC[Aun]-OH; thioether N-14)", "IC50": 0.169}
{"molecular_target": "T1, PD-1/PD-L1 interaction (PE-labeled human PD-L1-Ig binding to Jurkat cell line over-expressing human PD-1)", "assay": "Jurkat-PD-1 Cell Binding High-Content Screening Assay (CBA)", "details": "PE-labeled PD-L1-Ig 20 nM final, Jurkat-hPD-1 cells; read-out: Jurkat HPD1 PDL1 IC50", "outline": "as §1", "units": {"IC50": "µM"}}
{"compound": "CC(C)C[C@@H]1NC(=O)[C@H](Cc2c[nH]c3ccccc23)NC(=O)[C@H](CC(=O)O)NC(=O)[C@H](Cc2ccc(C(=O)O)cc2)NC(=O)[C@H](Cc2ccc(OCC(=O)O)cc2)NC(=O)CSC[C@@H](C(=O)NCCOCCOCC(=O)NCCCCCCCCCCC(=O)O)NC(=O)[C@H](Cc2cnc[nH]2)NC(=O)[C@H](C(C)C)NC(=O)[C@H](CC2CCCCC2)NC(=O)[C@H](CCN)NC(=O)[C@@H](CC(C)C)NC(=O)[C@H](C)N(C)C(=O)[C@H](C(C)C)NC(=O)[C@H](Cc2ccc(-c3ccccc3)cc2)NC1=O", "note": "[Example 2441] ({CH2CO}-Y(Carboxymethyl)[Phe(4-COOH)]DWL[Bip]V[NMeA][dL][Dab][Cha]VHC[AEEA][Aun]-OH; thioether N-14)", "IC50": 0.0338}
{"compound": "CC[C@@H]1NC(=O)CSC[C@@H](C(=O)N[C@@H](CCN)C(=O)NCCCCCCCCCCCCC(=O)O)NC(=O)[C@H](CO)NC(=O)[C@H](C(C)(C)O)NC(=O)[C@H](CC2CCCCC2)NC(=O)[C@H](CCN)NC(=O)[C@@H](CC(C)C)NC(=O)[C@H](C)N(C)C(=O)[C@H](Cc2ccc(C(=O)O)cc2)NC(=O)[C@H](Cc2ccc(-c3ccccc3)cc2)NC(=O)[C@H](Cc2ccc(C(=O)O)cc2)NC(=O)[C@H](Cc2cccc(C(F)(F)F)c2)NC(=O)[C@H](CC(=O)O)NC(=O)[C@H](Cc2ccc(C(=O)O)cc2)NC1=O", "note": "[Example 2569] ({CH2CO}-[Abu][Phe(4-COOH)]D[Phe(3-CF3)][Phe(4-COOH)][Bip][Phe(4-COOH)][NMeA][dL][Dab][Cha][Val(3-OH)]SC[Dab]-{NH(CH2)12COOH}; thioether N-14)", "IC50": 0.0453}
